Data: article PMC9322761, “Design, Synthesis and Biological Characterization of Histone Deacetylase 8 (HDAC8) Proteolysis Targeting Chimeras (PROTACs) with Anti-Neuroblastoma Activity” (International Journal of Molecular Sciences, 2022)

Experiments:
HDAC8 [1] = molecular target: T1, HDAC8 (Homo sapiens, UniProt Q9BY41); assay: HDAC8 degradation in SK-N-BE(2)-C neuroblastoma cells (Western blot); assay type: cell-based; design: endogenous in cells; host or cells: SK-N-BE(2)-C; conditions: SK-N-BE(2)-C cells; for HDAC8 degradation: up to 10 µM, Western blot
T1 sequence (Q9BY41 1-377): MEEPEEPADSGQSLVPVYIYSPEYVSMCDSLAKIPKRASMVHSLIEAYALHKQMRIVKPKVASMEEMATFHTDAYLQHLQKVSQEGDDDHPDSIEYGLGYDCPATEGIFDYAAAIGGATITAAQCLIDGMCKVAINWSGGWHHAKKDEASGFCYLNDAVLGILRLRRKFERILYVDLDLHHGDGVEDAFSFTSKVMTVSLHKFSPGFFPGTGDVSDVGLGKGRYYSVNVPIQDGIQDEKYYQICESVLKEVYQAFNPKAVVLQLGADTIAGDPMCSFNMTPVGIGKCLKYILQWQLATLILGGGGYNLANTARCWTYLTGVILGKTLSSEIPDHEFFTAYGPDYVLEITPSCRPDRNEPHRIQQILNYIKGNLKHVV
Experimental: Whole cell lysates from treated SK-N-BE(2)-C neuroblastoma cells were taken and the protein levels for HDAC8 and the acetylation of its substrate SMC3 were determined (Figure 6). As a control for HDAC6, we also assessed acetylation levels of α-tubulin. […] Western blot analysis was performed as described previously (Kolbinger et al.).
Figure 6 (A) SK-N-BE(2)-C neuroblastoma cells were treated for indicated time points with 10 µM of PROTACs. Degradation of HDAC8 and acetylation of HDAC8 target was analyzed via Western blot. (B) SK-N-BE(2)-C neuroblastoma cells were treated for 6 h with indicated concentrations of HyT_1p, CRBN_1b and HyT_1m. Acetylation of HDAC8 target SMC3 and HDAC6 target tubulin, as well as total HDAC8 levels, were assessed by Western blot. Quantified ac-SMC3 or ac-tubulin expression, respectively, was normalized to the respective tubulin loading control and to the solvent control (DMSO). This quantification is reflected by the numbers below each blot. […] Total HDAC6, total HDAC1, total HDAC8, and acetyl-histone H4 expression levels, were assessed by Western blot. Total GAPDH protein levels served as a loading control (LC). * unspecific bands obtained through reprobing of the membrane.

HDAC8 [2] = molecular target: T1, HDAC8; assay: In vitro HDAC8 activity assay (Fluor de Lys-HDAC8); assay type: biochemical; design: made in house; conditions: for IC50: Table 1, PROTACs
Experimental: Recombinant hHDAC8 was produced by Romier et al. in Strasbourg. The HDAC8 activity assays were performed according to the commercial HDAC8 Fluorometric Drug Discovery Kit (Fluor de Lys(R)-HDAC8, BML-KI178) corresponding to the instructions of the manufacturer. As substrate a tetrapeptide connected to aminomethylcoumarin (AMC) H2N-Arg- His-Lys(Ac)-Lys(Ac)-AMC was synthesized as previously described. The enzyme was incubated for 90 min at 37 °C, with a substrate concentration of 50 µM and increasing concentrations of inhibitors. The stop-solution-containing inhibitor was added to stop the hHDAC8 activity, and Trypsin was added to release the AMC. The solution was incubated for 20 min at 37 °C to develop the assay.
Inhibition was measured at increasing concentration and IC50 was calculated by nonlinear regression with Origin 9.0G software.

SK-N-BE(2)-C cells = assay: Colony formation assay in neuroblastoma cells; assay type: cell-based, human; conditions: 5 and 10 μM, treatment 96 h, then 6 days without treatment
Experimental: In order to measure the functional consequence of HDAC8 inhibition, two different cell lines were used: SK-N-BE(2)-C cells, which display MYCN amplification and non-functional p53; and IMR-32 cells having p53 wild type, which both respond with growth arrest and signs of neuronal differentiation upon knockdown or selective inhibition of HDAC8. Growth arrest was determined by colony formation and viability assays. Cells were treated with 5 and 10 μM of each of the CRBN_ based HDAC8 PROTACs having a triazole linker (CRBN_1d, CRBN_1e, CRBN_1f) for 96 h, followed by culturing for another 6 days without treatment (Figure 5A). This assesses whether the treatment impairs the clonogenic growth capacity of tumor cells, indicating effectiveness of compounds on the survival and proliferation of tumor cells.
In six-well plates, 500 cells were seeded and treated as indicated. Viable colonies were stained after a minimum of 10 days with crystal violet. For quantification, the mean intensity of each well of the 8-bit binary picture was measured with ImageJ software (U. S. National Institutes of Health, Bethesda, MD, USA; http://imagej.nih.gov/ij/ (accessed on 1 March 2022)).
Figure 5 (A) Neuroblastoma SK-N-BE(2)-C cells; Colony Assay, 10 days (compound treatment within first 96 h). Stained with crystal violet and quantified with ImageJ. (B,C) Trypan Blue assay for detection of dead cells. Neuroblastoma IMR-32 cells were either treated with 5 µM (B) or 10 µM (C). (D,E) Cell proliferation assessed via counting of viable cells. IMR-32 cells were either treated with 5 µM (D) or 10 µM (E) PROTACs. HDAC8i PCI-34501 served as a positive control, untreated (MEM) and solvent (DMSO) treated cells served as negative controls.

Row | Structure (SMILES) | HDAC8 degradation (HDAC8 [1]) | HDAC8 inhibitory activity (HDAC8 [2]; negative control) | Effect on colony formation (SK-N-BE(2)-C cells) | Remaining HDAC8 protein (HDAC8 [1]; 6 h, 10 µM) [%] | IC50 (HDAC8 [2]) [nM] | SI (HDAC6/HDAC8) (HDAC8 [2]; selectivity index, HDAC6 over HDAC8)
1 | COC(=O)c1ccc(C)c(NCc2ccc(OCc3cn(CCCCCC(=O)Nc4cccc5c4C(=O)N(C4CCC(=O)NC4=O)C5=O)nn3)cc2)c1 (centres unmarked) [33a] | did not show hyperacetylation of SMC3 or HDAC8 degradation | did not demonstrate a strong inhibitory activity | inactive | – | – | –
2 | COc1ccc(C(=O)NO)cc1NC(=O)c1ccc(NC(=O)CCCCCCCNc2cccc3c2C(=O)N(C2CCC(=O)NC2=O)C3=O)cc1 (centres unmarked) [CRBN_1b] | strong HDAC8 degradation | – | significantly decreased the ability to form colonies | 40 | 810 ± 170 | 0.7
3 | O=C(COc1ccc(CNc2cc(C(=O)NO)ccc2Cl)cc1)NCCCCCNC(=O)CC12CC3CC(CC(C3)C1)C2 [HyT_1p] | failed to degrade HDAC8 | – | significantly decreased the ability to form colonies | – | 750 ± 90 | –
